According to US20190160021A1, “Substituted Stilbenes as Inhibitors of NF-kappaB and Activators of Nrf2” (STC.UNM, priority 2017, published 2019):
pEC50: −log10 of the molar value.

Test system: Nrf2
Assay: Nrf2-ARE reporter-HepG2 stable cell line luciferase reporter assay for activators of Nrf2
Type: cell-based
Conditions: Nrf2-ARE reporter-HepG2 cells, from dose-response curves; read-out: EC50, concentration that produced 50% activation of Nrf2
Method: A Nrf2-ARE reporter-HepG2 stable cell line (BPS Bioscience, San Diego, Calif.) is grown in a humidified atmosphere at 37° C. in 5% CO295% air. The cells are maintained in MEM medium with Earles balanced salts and L-glutamine supplemented with 10% fetal bovine serum (FBS), 1 mM sodium pyruvate, 1% non-essential amino acids, 100 units/ml penicillin, 100 μg/ml streptomycin, and 400 μg/ml Geneticin. One day prior to treatment, the Nrf2-ARE cells are plated into 24-well cell culture plates at approximately 30% confluency in the above media without Geneticin. The following day, fresh media with or without substituted trans stilbene or sulforaphane is applied to the cells. DMSO concentrations are kept at 0.1%. The cells are again placed in a humidified atmosphere at 37° C. in 5% CO2/95% air for 5 hours. Plate wells are gently washed with phosphate buffered saline (PBS) pH 7.4 and lysed with 1× passive lysis buffer (Promega, Madison, Wis., USA). The subsequent lysates are analyzed with the Luciferase Assay System (Promega) utilizing a GloMax 20/20 luminometer (Promega, Sunnyvale, Calif., USA). The firefly luciferase relative light units are normalized to protein (mg/ml) with BCATM Protein Assay Kit protein (Pierce, Rockford, Ill., USA)

SMILES | pEC50
Oc1ccc(C=Cc2cc(O)cc(O)c2)cc1 [Resveratrol, resveratrol] | 5.27
C[S+]([O-])CCCCN=C=S (centres unmarked) [sulforaphane] | 5.92

Same assay, conditions: Nrf2-ARE reporter-HepG2 cells, screened at 15 μM

SMILES | fold activation (extent of activation) of Nrf2
COc1cccc(/C=C/c2ccc(C(F)(F)F)cc2)c1OC [trans stilbene 54, (E)-1,2-Dimethoxy-3-(4-(trifluoromethyl)styryl)benzene] | 65.5 fold

Test system: not given
Assay: not given
Conditions: not given

SMILES | melting point
COc1cccc(/C=C/c2ccc(F)cc2)c1OC [trans stilbene 17, (E)-1-(4-Fluorostyryl)-2,3-dimethoxybenzene] | 50 to 51 °C
Cc1ccc(/C=C/c2ccc(F)c(F)c2)cc1 [trans stilbene 22, (E)-1,2-Difluoro-4-(4-methylstyryl)benzene] | 90 to 92 °C
COc1cccc(/C=C/c2cc(OC)ccc2OC)c1 [trans stilbene 50, (E)-1,4-Dimethoxy-2-(3-methoxystyryl)benzene] | 48 to 49 °C
Fc1cccc(/C=C/c2ccc(F)c(F)c2)c1 [trans stilbene 30, (E)-1,2-Difluoro-4-(3-fluorostyryl)benzene] | 48 to 49 °C
Fc1cccc(/C=C/c2ccc(F)cc2F)c1 [trans stilbene 35, (E)-2,4-Difluoro-1-(3-fluorostyryl)benzene] | 60 to 61 °C
Cc1ccc(/C=C/c2ccc(F)cc2F)cc1 [trans stilbene 37, (E)-2,4-Difluoro-1-(4-methylstyryl)benzene] | 72 to 73 °C
Fc1ccc(/C=C/c2cc(F)ccc2F)cc1 [trans stilbene 40, (E)-1,4-Difluoro-2-(4-fluorostyryl)benzene] | 76 to 77 °C
COc1cccc(/C=C/c2ccc(C(F)(F)F)cc2)c1OC [trans stilbene 54, (E)-1,2-Dimethoxy-3-(4-(trifluoromethyl)styryl)benzene] | 67 to 69 °C
COc1ccc(/C=C/c2cc(F)ccc2F)cc1 [trans stilbene 23, (E)-1,4-Difluoro-2-(4-methoxystyryl)benzene] | 109 to 110 °C
COc1cccc(/C=C/c2ccc(C)cc2)c1OC [trans stilbene 48, (E)-1,2-Dimethoxy-3-(4-methylstyryl)benzene] | 38 to 40 °C
Fc1ccc(/C=C/c2ccccc2F)c(F)c1 [trans stilbene 36, (E)-2,4-Difluoro-1-(2-fluorostyryl)benzene] | 84 to 85 °C
COc1ccccc1/C=C/c1ccccc1F [trans stilbene 10, (E)-1-Fluoro-2-(2-methoxystyryl)benzene] | 34 to 35 °C
Fc1ccc(/C=C/c2ccccc2F)cc1F [trans stilbene 24, (E)-1,2-Difluoro-4-(2-fluorostyryl)benzene] | 85 to 86 °C
COc1ccc(OC)c(/C=C/c2ccc(F)cc2)c1 [trans stilbene 18, (E)-2-(4-Fluorostyryl)-1,4-dimethoxybenzene] | 58 to 59 °C
COc1ccc(/C=C/c2ccc(F)c(F)c2)cc1 [trans stilbene 26, (E)-1,2-Difluoro-4-(4-methoxystyryl)benzene] | 73 to 74 °C
Fc1cccc(/C=C/c2cc(F)ccc2F)c1 [trans stilbene 34, (E)-1,4-Difluoro-2-(3-fluorostyryl)benzene] | 73 to 74 °C
COc1cccc(/C=C/c2ccccc2OC)c1 [trans stilbene 49, (E)-1-Methoxy-2-(3-methoxystyryl)benzene] | 49 to 50 °C
